# Test results as given in patent US7700644B2, “Isoflavonoid dimers” (Novogen Research Pty Ltd, priority 2005, dated 2010).
# Legend:
# PGE2 = PGE2 in murine macrophages (RAW 264.7) stimulated with LPS; type: cell-based, mouse; conditions: RAW 264.7, LPS 50 ng/ml, 16 hrs, dose responsive
# Description: The mouse macrophage cell line RAW 264.7 was cultured in DMEM supplemented with FCS, 2 mM glutamine and 50 U/ml penicillin/streptomycin. Subconfluent cells were detached from the flask by gentle scraping and 24-well plates seeded at 5×10^5 cells per well and allowed to adhere for 1 hr. Cells were then treated either test compounds (in 0.025% DMSO) or vehicle alone, and incubated for 1 hr. LPS 50 ng/ml (LPS —Sigma-Aldrich) was then added. After incubation for 16 hrs, culture media was collected and stored at −80° C. for ecosanoid and cytokine measurements using enzyme immunometric assays (PGE2 and TXB2—Cayman Chemical and TNFα—Becton Dickinson).
# [1] = tested on: HCT-15 (Colorectal) cells; assay: Chemosensitisation, combination with antineoplastic agent, HCT-15; type: cell-based, human
# Description: (§1) The utility of the dimeric compounds of the invention to act as a chemosensitiser when used in combination with an array of standard chemotherapeutic agents was assessed. Dimeric Cpd. 2 was applied to various colorectal and pancreatic cancer cell lines to investigate its synergy with standard chemotherapeutic agents including cisplatin, gemcitabine, paclitaxel, doxorubicin, camptothecin and topotecan.
# (§2) The experiment as outlined in SOP-BD011 (Versions A and B) was used to screen three antineoplastic agents against a given cell line in any ‘one’ experiment (see for example Kanzawa et al., (1997)). The inherent design of the experiment allowed for three sequences of Cpd. 2 and an antineoplastic agent. • 1) Direct Sequence—Cells are treated with both Cpd. 2 and a single antineoplastic agent (combined) for 5 days. • 2) Cpd. 2 First (Forward) Sequence—Cells are treated for 24 hours with Cpd. 2 before replacing with a 24 hour antineoplastic agent treatment; drugs are then washed out and processed on Day 5. • 3) Reverse Sequence—The reverse order to experiment No. 2 above. i.e. a cytotoxin first sequence Results and Conclusions
# All data was evaluated using the formulae of theoretic additivity incorporated into a three dimensional model, as described by Kanzawa et al. (1997). This allows for simple data interpretation as values in excess of 10% are defined as ‘synergistic’ (depicted in grey) whilst those below −10% are defined as ‘antagonistic’ (depicted in black).
# HCT-15 (Colorectal) = assay: In vitro cytotoxicity, MTT proliferation assay, HCT-15; type: cell-based, human; conditions: Homo sapiens; Colorectal HCT-15
# Description: (§3) The human pancreatic cancer cell line, HPAC (CRL-2119) was routinely cultured in 1:1 mixture DMEM (Sigma) plus Ham's F12 (Sigma) medium containing HEPES (15 mM), insulin (0.002 mg/ml), transferrin (0.005 mg/ml), hydrocortisone, (40 ng/ml), epidermal growth factor (10 ng/ml). The ovarian cancer cell line CP70 was obtained as a gift from Dr. Gil Mor (Yale University) and cultured in a 1:1 mixture DMEM plus Ham's F12 medium, and SKOV-3 was purchased from ATCC and cultured in McCoy's 5a medium. The breast cancer cell line MDA-MB-468 cultured in Leibovitz's L-15 medium.
# (§4) All cultures were supplemented with 10% FCS(CSL, Australia), penicillin (100 U/ml), streptomycin ([…]), L-glutamine (2 mM) and sodium bicarbonate (1.2 g/L), and cultured at 37° C. in a humidified atmosphere of 5% CO2. All remaining cell lines were purchased from ATCC (Maryland, USA) except where noted.
# (§5) IC50 values were determined for each cell line. Cells were seeded in 96-well plates at an appropriate cell density as determined from growth kinetics analysis. NFFs were cultured for 5 days and RK-13s for 24 hrs in the absence and presence of the test compounds. Cell proliferation was assessed after the addition of 20 μl of 3-4,5 dimethylthiazol-2,5-diphenyl tetrazolium bromide (MTT, 2.5 mg/ml in PBS, Sigma) for 3-4 hrs at 37° C. according to manufacturer's instructions. IC50 values were calculated from semi-log plots of % of control proliferation on the y-axis against log dose on the x-axis.
# unstimulated splenocytes = assay: Murine splenocytes, 24 hour pre-incubation with compound then mitogenic stimulation; type: cell-based, Male Skh-1 (hairless) mice; conditions: 10 μM
# Description: Male Skh-1 (hairless) mice, six weeks old were killed by cervical dislocation. Single cell suspensions were made from their spleens and erythrocytes were lysed in buffer (0.14M NH4Cl, 17 mM Tris, pH 7.2). The remaining splenocytes were cultured in RPMI-1640 (Gibco) supplemented with 10% (v:v) FBS, 200 mM L-glutamine, penicillin/streptomycin and […] 2-mercaptoethanol. Splenocytes were added to triplicate wells containing either concanavalin A (ConA, Sigma-Aldrich—0.4 μg/well), lipopolysaccharide (LPS, Sigma-Aldrich—1 μg/well) or no mitogen, as well as 10 μM of either Compound 1 or Compound 2 in DMSO, or DMSO alone. Samples were analysed after a 3 day incubation at 37° C. in 5% CO2 in air. To assess cell numbers, methylthiazoletetrazolium (MTT) was added to each well, incubated for a further 4 hrs and then colour developed with 0.04N HCl in isopropanol (Mosmann 1983). Plates were read at 570 nm and 630 nm. The compounds were examined several times using different mice. For each assay, the effect of test compound was compared with that of vehicle control, and the results compared using a student's t test (Prism). Statistically significant difference was determined to have occurred when p<0.05.
# Another assay examined the effect pre-incubating unstimulated splenocytes with test compounds at 10 μM for 24 hours, removing the compounds and then assessing their ability to respond to mitogenic stimulation as described for the previous assay. Cell numbers were assessed after the 24 hr pre-incubation using MTT, and equal numbers of cells/well plated into 96 well plates as usual.
# LNCaP (Prostate) = assay: In vitro cytotoxicity, MTT proliferation assay, LNCaP; type: cell-based, human; conditions: Homo sapiens
# Description: as §3, §4, §5
# [2] = tested on: Neonatal foreskin fibroblasts (NFF); assay: Normal cell toxicity, MTT proliferation assay, NFF; type: cell-based, human
# Description: Neonatal foreskin fibroblasts (NFF) were a gift from Dr. Peter Parsons (Queensland Institute of Medical Research). RK-13 (rabbit kidney) cells were obtained from Miller Whalley (Macquarie University). Both cell types were cultured in RPMI supplemented with 10% FCS (CSL, Australia), penicillin (100 U/ml), streptomycin ([…]), L-glutamine (2 mM) and sodium bicarbonate (1.2 g/L), and cultured at 37° C. in a humidified atmosphere of 5% CO2.
# as §5
# Duplicate cytotoxicity assays against NFF cells were conducted with dehydroequol (DHE), 4,9-dihydroxy-14,15-dimethoxy-12a-(3′,4′-dimethoxyphenyl)-3,10-dimethyl-2,11-dioxa-(1H,12H)-6b,6c,12a,16b-tetrahydronaphtho[1,2-g]chrysene (2) from Example 6.1 and cisplatin.
# HPAC (Pancreatic) cells = assay: Chemosensitisation, combination with antineoplastic agent, HPAC; type: cell-based, human
# Description: as §1, §2
# All data was evaluated using the formulae of theoretic additivity incorporated into a three dimensional model, as described by Kanzawa et al. (1997). […]
structure (smiles),measurement,setting,value
"COc1ccc(C23COc4c(ccc(O)c4C)C2C2c4ccc(O)c(C)c4OCC2c2cc(OC)c(OC)cc23)cc1OC (centres unmarked) [Cpd. 2, 4,9-Dihydroxy-14,15-dimethoxy-12a-(3′,4′-dimethoxyphenyl)-3,10-dimethyl-2,11-dioxa-(1H,12H)-6b,6c,12a,16b-tetrahydronaphtho[1,2-g]chrysene]",effect on PGE2,PGE2,induced
same,synergy with Doxorubicin,[1]; combination (A),strong synergistic cytotoxicity
same,synergy with Paclitaxel,[1]; combination treated group (A),no synergy
same,synergy with Paclitaxel,"[1]; forward (B) and reverse (C) 24 hour sequences, Cpd. 2 1 μM and 2 μM",strong synergy
same,synergy with Doxorubicin,[1]; forward (B) or reverse (C) sequences,No synergy
same,IC50,HCT-15 (Colorectal),54.7 ± 28 µM
same,Splenocyte viability following three days' culture in the absence of mitogen,unstimulated splenocytes,significantly reduced
same,reduction in cell numbers compared with vehicle alone,unstimulated splenocytes,55%
same,proliferative response to ConA after pre-incubation,unstimulated splenocytes; compound removed,significantly less
same,IC50,LNCaP (Prostate),12 ± 4.3 µM
same,IC50,"[2]; Homo sapiens, 120 h, NFF fibroblast, cultured 5 days, MTT",23.6 ± 6.6 µM
same,toxicity to normal cells relative to cisplatin and dehydroequol,"[2]; normal cells (NFF, rabbit kidney)","less toxic to normal cells than cisplatin, but more toxic than dehydroequol"
same,synergy with Gemcitabine,HPAC (Pancreatic) cells; Cpd. 2 concentrations greater than 5 μM,Synergy was not observed
same,synergy with Gemcitabine,"HPAC (Pancreatic) cells; simultaneously (A) or 24 hour sequences (B,C)",synergistic cytotoxicity
